Results reported in paper PMC9271751, “Synthesis and Evaluation of Coumarin-Chalcone Derivatives as α-Glucosidase Inhibitors” (Frontiers in Chemistry, 2022).
Read-outs that look alike come from different tables or passages of the source.

What was measured:
[1] = target: T1, α-Glucosidase from Saccharomyces cerevisiae (EC 3.2.1.20) (Saccharomyces cerevisiae, UniProt P53341); test: biochemical
T1 construct: purchased Sigma-Aldrich
Experimental: Ethyl acetoacetate, salicylaldehyde and absolute ethanol were analytical pure grade and purchased from Aladdin (Shanghai) Reagent Co., Ltd. Piperidine; glacial acetic acid, petroleum ether and ethyl acetate were supplied by Titan (Shanghai) Technology Co., Ltd.; α-Glucosidase from Saccharomyces cerevisiae (EC 3.2.1.20), 4-nitrophenyl-α-D-[…] (p-NPG), and Dimethyl sulfoxide (DMSO) were supported by Sigma-Aldrich (United States) Chemical Co., Ltd. Melting points were tested on a micro melting-point instrument. ^1H NMR spectra were measured (CDCl3) by Bruker DPX-500 MHz AVANCE with TMS as an internal standard. Mass spectroscopy was performed on a (LCQTM). The absorbance was recorded by a micro-plate reader.
The α-glucosidase inhibitory activity assay of coumarin-chalcone derivatives 3 (a∼v) was conducted using p-NPG as a substrate. ([Pogaku et al., 2019]; [Saeedi et al., 2019]; [Xu et al., 2019]). 10 μl of the test compound and 10 μl of the enzyme (final concentration 0.1 U/ml) were added to 130 μl of PBS (0.1 M phosphate, pH 6.8), and incubated at 37°C for 10 min. Then p-NPG (final concentration 0.25 mM) was added and the absorbance change was measured by a micro-plate reader at 405 nm. All experiments were assayed four times. The percentage of inhibition was obtained using the formula: Inhibition (%) = […] × 100%, where OD1 and OD0 represent the absorbance value of the experimental group and the blank group respectively. […] The IC50 value of each compound was obtained from the fitting curve of inhibition vs. compound concentration.

[2] = target: T1, α-Glucosidase from Saccharomyces cerevisiae (EC 3.2.1.20); test: α-Glucosidase inhibition kinetics (v vs. enzyme concentration, Lineweaver-Burk plots); format: biochemical; conditions: for Inhibition mechanism (inhibition type): Lineweaver-Burk double reciprocal plot, p-NPG 0.25-1 mM; for Inhibition mechanism (inhibition type) / Reversibility of inhibition: compound 0, 25, 30, 40 μM; for KIS: enzyme-substrate complex, secondary plot of intercept vs. compound concentration; for Reversibility of inhibition: plots of v vs. α-glucosidase concentration (0.075-0.15 U/mL)
Description: Generally, according to the type of inhibition, enzyme inhibitors can be divided into reversible inhibitors and irreversible inhibitors ([Abuelizz et al., 2019]). In order to obtain the principle of the combination of enzyme inhibitors and enzymes, it is necessary to study the interaction between enzyme inhibitors and enzymes. Compounds 3j, 3q and 3t with strongest inhibitory activity were chosen for the research of inhibition kinetics against α-glucosidase (the inhibitory mechanism analysis of compound 3t was shown in Figure 2 and figures for the inhibitory mechanism analysis of compounds 3j and 3q have been shown in the supporting information). A series of plots of enzymatic reaction rate (v) vs. α-glucosidase concentration in the presence of inhibitors were generated to identify the type of inhibition that is listed in Figure 1.
The inhibit type of inhibitors on α-glucosidase include four types, named competitive inhibition, non-competitive inhibition, mixed inhibition, and anti-competitive inhibition ([Abuelizz et al., 2019]). The inhibition modes of compounds 3j, 3q and 3t against α-glucosidase were investigated using Lineweaver-Burk double reciprocal plot.
The type of inhibition was identified by the plots of enzymatic reaction rate (V) vs. α-glucosidase concentration. The test method was similar to the above enzyme activity assay. In the presence of different concentrations of compounds 3j, 3q and 3t, respectively (0, 25, 30, and 40 μM), the absorbance change was detected under different concentrations of α-glucosidase (0.075, 0.1, 0.125, and 0.15 U/mL).
The inhibition mode was also detected using a similar method to that described above. In the presence of different concentrations of compounds 3j, 3q and 3t, respectively (0, 25, 30 and 40 μM), the absorbance change was measured under different concentrations of p-NPG (0.25, 0.5, 0.75, 1 mM). The inhibition mode of the inhibitor was obtianed using Lineweaver-Burk plots. The constant KI was obtained by secondary plots of the derivatives concentration (I) vs. Slope, constant KIS was obtained by secondary plots of the derivatives concentration (I) vs. Intercept.

[3] = p-NPG 0.25 mM, enzyme 0.1 U/ml, PBS pH 6.8, 37°C, read-out: IC50, α-glucosidase inhibitory activity

T1 sequence (P53341 whole entry): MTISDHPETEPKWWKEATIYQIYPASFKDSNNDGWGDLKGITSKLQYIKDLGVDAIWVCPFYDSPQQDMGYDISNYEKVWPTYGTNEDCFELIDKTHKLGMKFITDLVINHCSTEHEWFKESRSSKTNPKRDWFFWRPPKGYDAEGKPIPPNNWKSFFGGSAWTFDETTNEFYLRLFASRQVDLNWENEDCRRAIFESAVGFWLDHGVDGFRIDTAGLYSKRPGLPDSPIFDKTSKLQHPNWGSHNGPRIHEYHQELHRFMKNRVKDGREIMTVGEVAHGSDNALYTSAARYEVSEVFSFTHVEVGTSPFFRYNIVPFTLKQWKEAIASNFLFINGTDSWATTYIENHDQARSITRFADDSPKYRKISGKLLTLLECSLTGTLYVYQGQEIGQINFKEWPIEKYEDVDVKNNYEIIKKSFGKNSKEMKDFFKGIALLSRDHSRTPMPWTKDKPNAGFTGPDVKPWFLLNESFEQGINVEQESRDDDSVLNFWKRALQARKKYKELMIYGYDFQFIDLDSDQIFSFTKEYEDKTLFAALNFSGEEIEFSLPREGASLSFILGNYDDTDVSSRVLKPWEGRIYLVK

Row | Compound | IC50 [1, 3] [µM] | IC50 [1] [µM] | other results
1 | O=C(/C=C/c1ccccc1)c1cc2ccccc2oc1=O [Compound 3a, (E)-3-cinnamoyl-2H-chromen-2-one] |  | 125.3 ± 1.18 | 
2 | O=C(/C=C/c1ccccc1F)c1cc2ccccc2oc1=O [Compound 3g, (E)-3-[3-(2-fluorophenyl)acryloyl]-2H-chromen-2-one] |  | 48.4 ± 1.42 | 
3 | O=C(/C=C/c1cccc(F)c1)c1cc2ccccc2oc1=O [Compound 3h, (E)-3-[3-(3-fluorophenyl)acryloyl]-2H-chromen-2-one] |  | 45.7 ± 1.28 | 
4 | O=C(/C=C/c1ccc(F)cc1)c1cc2ccccc2oc1=O [Compound 3i, (E)-3-[3-(4-fluorophenyl)acryloyl]-2H-chromen-2-one] |  | 35.68 ± 0.28 | 
5 | O=C(/C=C/c1ccc(F)cc1F)c1cc2ccccc2oc1=O [Compound 3j, (E)-3-[3-(2,4-difluorophenyl)acryloyl]-2H-chromen-2-one] | 30.3 ± 2.53 |  | Inhibition mechanism (inhibition type) [2]: mixed-type inhibition; KIS ([2]; inhibition constant): 25.94 µM; Ki ([2]; inhibition constant, free enzyme, secondary plot of slope vs. compound concentration, read-out: KI): 19.5 µM; Reversibility of inhibition [2]: reversible
6 | O=C(/C=C/c1ccccc1Cl)c1cc2ccccc2oc1=O [Compound 3o, (E)-3-[3-(2-chlorophenyl)acryloyl]-2H-chromen-2-one] |  | 59.7 ± 1.73 | 
7 | O=C(/C=C/c1cccc(Cl)c1)c1cc2ccccc2oc1=O [Compound 3p, (E)-3-[3-(3-chlorophenyl)acryloyl]-2H-chromen-2-one] |  | 52.6 ± 2.45 | 
8 | O=C(/C=C/c1ccc(Cl)cc1)c1cc2ccccc2oc1=O [Compound 3q, (E)-3-[3-(4-chlorophenyl)acryloyl]-2H-chromen-2-one] |  | 29.7 ± 2.68 | Ki [2]: 16.1 µM; Inhibition mechanism (inhibition type) [2]: mixed-type inhibition; KIS ([2]; inhibition constant): 20.34 µM; Reversibility of inhibition [2]: reversible
9 | O=C(/C=C/c1ccccc1Br)c1cc2ccccc2oc1=O [Compound 3r, (E)-3-[3-(2-bromophenyl)acryloyl]-2H-chromen-2-one] |  | 38.6 ± 1.87 | 
10 | O=C(/C=C/c1cccc(Br)c1)c1cc2ccccc2oc1=O [Compound 3s, (E)-3-[3-(3-bromophenyl)acryloyl]-2H-chromen-2-one] |  | 35.6 ± 2.18 | 
11 | O=C(/C=C/c1ccc(Br)cc1)c1cc2ccccc2oc1=O [Compound 3t, (E)-3-[3-(4-bromophenyl)acryloyl]-2H-chromen-2-one] |  | 24.1 ± 2.36 | Ki [2]: 11 µM; Inhibition mechanism (inhibition type) [2]: mixed-type inhibition; Reversibility of inhibition [2]: reversible

The next lines start with results.

Row | IC50 [1, 3] [µM] | Compound | IC50 [1] [µM] | other results
12 | 95.2 ± 1.35 | Cc1ccc(/C=C/C(=O)c2cc3ccccc3oc2=O)cc1 [Compound 3b, (E)-3-[3-(p-tolyl)acryloyl]-2H-chromen-2-one] |  | 
13 | 60.9 ± 2.74 | COc1ccccc1/C=C/C(=O)c1cc2ccccc2oc1=O [Compound 3c, (E)-3-[3-(2-methoxyphenyl)acryloyl]-2H-chromen-2-one] |  | 
14 | 96.4 ± 1.37 | COc1cccc(/C=C/C(=O)c2cc3ccccc3oc2=O)c1 [Compound 3d, (E)-3-[3-(3-methoxyphenyl)acryloyl]-2H-chromen-2-one] |  | 
15 | 105 ± 1.98 | COc1ccc(/C=C/C(=O)c2cc3ccccc3oc2=O)cc1 [Compound 3e, (E)-3-[3-(4-methoxyphenyl)acryloyl]-2H-chromen-2-one] |  | 
16 | 75.5 ± 0.98 | CSc1ccc(/C=C/C(=O)c2cc3ccccc3oc2=O)cc1 [Compound 3f, (E)-3-{3-[4-(methylthio)phenyl]acryloyl}-2H-chromen-2-one] |  | 
17 | 49.7 ± 3.28 | O=C(/C=C/c1ccc(F)c(F)c1)c1cc2ccccc2oc1=O [Compound 3k, (E)-3-[3-(3,4-difluorophenyl)acryloyl]-2H-chromen-2-one] |  | 
18 | 71.5 ± 2.14 | O=C(/C=C/c1ccccc1C(F)(F)F)c1cc2ccccc2oc1=O [Compound 3l, (E)-3-{3-[2-(trifluoromethyl)phenyl]acryloyl}-2H-chromen-2-one] |  | 
19 | 64.7 ± 1.82 | O=C(/C=C/c1cccc(C(F)(F)F)c1)c1cc2ccccc2oc1=O [Compound 3m, (E)-3-{3-[3-(trifluoromethyl)phenyl]acryloyl}-2H-chromen-2-one] |  | 
20 | 53.6 ± 1.95 | O=C(/C=C/c1ccc(C(F)(F)F)cc1)c1cc2ccccc2oc1=O [Compound 3n, (E)-3-{3-[4-(trifluoromethyl)phenyl]acryloyl}-2H-chromen-2-one] |  | 
21 | 109 ± 2.69 | O=C(/C=C/c1cccs1)c1cc2ccccc2oc1=O [Compound 3u, (E)-3-[3-(thiophen-2-yl)acryloyl]-2H-chromen-2-one] |  | 
22 | 103 ± 1.45 | O=C(/C=C/c1cc2ccccc2[nH]1)c1cc2ccccc2oc1=O [Compound 3v, (E)-3-[3-( ^ 1 H-indol-2-yl)acryloyl]-2H-chromen-2-one] |  | 
